Experimental data published in the supplement of paper PMC12463676, “Small-molecule dissolution of stress granules by redox modulation benefits ALS models” (Nature Chemical Biology, 2025).

Tests used:
[1] = compound: O=[As]([O-])(O)O.[K+] [potassium arsenate]; assay: thermal stability z-score vs DMSO; higher = more thermally stabilized by treatment; settings: HeLa; arsenate concentration 1 mM
Method: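 Cellular thermal proteome profiling in HeLa cells treated with 1 mM arsenate for 1 h (DMSO pretreatment), heated to ten temperatures (37-66.3 °C). Soluble protein was quantified by TMT mass spectrometry relative to DMSO controls; the thermal stability score was transformed to a z-score; mean of n = 3 experiments.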

[2] = compound: NC(=O)CCCCC1CCSS1 [lipoamide]; assay: as above; settings: HeLa, lipoamide concentration 100 µM
Method: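 Cellular thermal proteome profiling in HeLa cells. Cells were treated with 100 µM lipoamide for 1 h, with or without 1 mM arsenate for a further 1 h, then heated to ten temperatures (37-66.3 °C), and soluble protein was quantified by TMT mass spectrometry relative to 0.1% DMSO controls. The thermal stability score (sum of log2 fold changes minus the abundance score) was transformed to a z-score; mean of n = 3 experiments.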

[3] = arsenate co-treatment: 1 mM arsenate 1 h
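Note: each temperature applied for 3 min, abundance score taken as mean log2 fold change at the two lowest temperatures, z-score obtained by mean subtraction and division by SD.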

Sequence of UniProt Q8NFV4 (Q8NFV4 whole entry): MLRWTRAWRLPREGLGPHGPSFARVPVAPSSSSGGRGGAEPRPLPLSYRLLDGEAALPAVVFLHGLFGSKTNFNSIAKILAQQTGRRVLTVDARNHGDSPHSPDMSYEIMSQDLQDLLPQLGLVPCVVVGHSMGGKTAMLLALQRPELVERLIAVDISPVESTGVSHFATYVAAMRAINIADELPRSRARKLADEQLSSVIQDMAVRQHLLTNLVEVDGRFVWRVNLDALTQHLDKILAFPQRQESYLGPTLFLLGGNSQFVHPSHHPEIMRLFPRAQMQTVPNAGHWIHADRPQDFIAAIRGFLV
Sequence of UniProt P08473 (P08473 whole entry): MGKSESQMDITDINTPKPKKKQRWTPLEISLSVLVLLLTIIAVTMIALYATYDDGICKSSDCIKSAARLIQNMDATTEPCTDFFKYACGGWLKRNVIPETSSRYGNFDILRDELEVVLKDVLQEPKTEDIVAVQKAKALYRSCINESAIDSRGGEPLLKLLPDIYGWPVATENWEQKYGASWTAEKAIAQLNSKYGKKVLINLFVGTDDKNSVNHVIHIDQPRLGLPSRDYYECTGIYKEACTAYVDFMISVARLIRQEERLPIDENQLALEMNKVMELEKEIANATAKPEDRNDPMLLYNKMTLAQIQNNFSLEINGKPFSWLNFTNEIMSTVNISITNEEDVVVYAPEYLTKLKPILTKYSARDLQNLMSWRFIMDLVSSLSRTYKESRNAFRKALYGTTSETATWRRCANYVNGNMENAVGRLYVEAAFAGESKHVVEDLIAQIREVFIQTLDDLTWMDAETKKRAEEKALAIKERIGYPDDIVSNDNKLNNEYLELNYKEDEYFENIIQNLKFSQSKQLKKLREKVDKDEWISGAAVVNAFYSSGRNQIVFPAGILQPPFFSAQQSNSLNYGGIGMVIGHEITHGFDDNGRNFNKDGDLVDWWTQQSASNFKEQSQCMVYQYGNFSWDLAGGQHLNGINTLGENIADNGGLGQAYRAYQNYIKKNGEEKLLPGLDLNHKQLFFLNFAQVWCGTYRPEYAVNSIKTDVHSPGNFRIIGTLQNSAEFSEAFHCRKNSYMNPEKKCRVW
Sequence of UniProt Q96JJ3 (Q96JJ3 whole entry): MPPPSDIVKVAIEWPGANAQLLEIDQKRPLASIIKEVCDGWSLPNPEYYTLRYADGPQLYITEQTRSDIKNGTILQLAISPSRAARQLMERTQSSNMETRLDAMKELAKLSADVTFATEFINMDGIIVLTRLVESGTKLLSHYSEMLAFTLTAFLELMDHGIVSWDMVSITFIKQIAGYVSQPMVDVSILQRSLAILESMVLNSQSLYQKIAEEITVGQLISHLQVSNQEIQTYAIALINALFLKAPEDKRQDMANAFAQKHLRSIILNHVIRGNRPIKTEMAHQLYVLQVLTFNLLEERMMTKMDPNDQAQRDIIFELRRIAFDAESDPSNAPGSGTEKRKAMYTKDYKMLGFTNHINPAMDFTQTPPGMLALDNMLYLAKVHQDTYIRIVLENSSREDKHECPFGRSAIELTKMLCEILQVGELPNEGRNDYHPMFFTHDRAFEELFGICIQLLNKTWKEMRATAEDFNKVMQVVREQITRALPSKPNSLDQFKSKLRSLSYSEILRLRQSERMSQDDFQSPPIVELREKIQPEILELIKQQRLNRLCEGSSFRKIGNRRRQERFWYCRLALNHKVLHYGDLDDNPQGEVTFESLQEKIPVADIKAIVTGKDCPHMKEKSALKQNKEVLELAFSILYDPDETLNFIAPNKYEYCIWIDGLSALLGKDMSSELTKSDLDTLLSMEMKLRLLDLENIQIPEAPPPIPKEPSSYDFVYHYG
Sequence of UniProt Q86WW8 (Q86WW8 whole entry): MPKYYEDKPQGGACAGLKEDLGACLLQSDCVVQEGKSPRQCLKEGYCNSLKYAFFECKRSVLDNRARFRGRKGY
Sequence of UniProt Q12894 (Q12894 whole entry): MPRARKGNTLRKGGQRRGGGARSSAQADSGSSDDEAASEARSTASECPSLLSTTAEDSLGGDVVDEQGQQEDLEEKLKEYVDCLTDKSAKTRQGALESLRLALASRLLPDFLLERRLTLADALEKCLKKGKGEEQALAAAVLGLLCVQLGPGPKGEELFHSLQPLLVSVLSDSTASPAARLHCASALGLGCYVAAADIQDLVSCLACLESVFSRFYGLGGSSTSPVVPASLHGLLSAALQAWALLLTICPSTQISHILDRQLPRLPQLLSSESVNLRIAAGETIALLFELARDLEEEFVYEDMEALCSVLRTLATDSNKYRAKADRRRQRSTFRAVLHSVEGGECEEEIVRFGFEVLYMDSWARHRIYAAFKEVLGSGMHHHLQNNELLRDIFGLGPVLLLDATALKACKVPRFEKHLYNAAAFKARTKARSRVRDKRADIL
Sequence of UniProt P26440 (P26440 whole entry): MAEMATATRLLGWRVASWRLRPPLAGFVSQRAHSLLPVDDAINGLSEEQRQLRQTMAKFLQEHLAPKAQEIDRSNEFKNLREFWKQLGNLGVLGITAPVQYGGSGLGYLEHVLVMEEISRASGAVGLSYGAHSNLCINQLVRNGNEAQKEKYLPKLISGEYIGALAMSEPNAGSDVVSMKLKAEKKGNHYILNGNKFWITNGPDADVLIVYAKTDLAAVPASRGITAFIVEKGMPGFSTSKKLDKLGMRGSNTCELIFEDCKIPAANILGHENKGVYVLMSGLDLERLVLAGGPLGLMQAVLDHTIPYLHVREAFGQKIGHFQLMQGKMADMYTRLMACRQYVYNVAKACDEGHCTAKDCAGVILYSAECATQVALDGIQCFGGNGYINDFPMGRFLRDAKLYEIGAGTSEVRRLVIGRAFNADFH
Sequence of UniProt P63010 (P63010 whole entry): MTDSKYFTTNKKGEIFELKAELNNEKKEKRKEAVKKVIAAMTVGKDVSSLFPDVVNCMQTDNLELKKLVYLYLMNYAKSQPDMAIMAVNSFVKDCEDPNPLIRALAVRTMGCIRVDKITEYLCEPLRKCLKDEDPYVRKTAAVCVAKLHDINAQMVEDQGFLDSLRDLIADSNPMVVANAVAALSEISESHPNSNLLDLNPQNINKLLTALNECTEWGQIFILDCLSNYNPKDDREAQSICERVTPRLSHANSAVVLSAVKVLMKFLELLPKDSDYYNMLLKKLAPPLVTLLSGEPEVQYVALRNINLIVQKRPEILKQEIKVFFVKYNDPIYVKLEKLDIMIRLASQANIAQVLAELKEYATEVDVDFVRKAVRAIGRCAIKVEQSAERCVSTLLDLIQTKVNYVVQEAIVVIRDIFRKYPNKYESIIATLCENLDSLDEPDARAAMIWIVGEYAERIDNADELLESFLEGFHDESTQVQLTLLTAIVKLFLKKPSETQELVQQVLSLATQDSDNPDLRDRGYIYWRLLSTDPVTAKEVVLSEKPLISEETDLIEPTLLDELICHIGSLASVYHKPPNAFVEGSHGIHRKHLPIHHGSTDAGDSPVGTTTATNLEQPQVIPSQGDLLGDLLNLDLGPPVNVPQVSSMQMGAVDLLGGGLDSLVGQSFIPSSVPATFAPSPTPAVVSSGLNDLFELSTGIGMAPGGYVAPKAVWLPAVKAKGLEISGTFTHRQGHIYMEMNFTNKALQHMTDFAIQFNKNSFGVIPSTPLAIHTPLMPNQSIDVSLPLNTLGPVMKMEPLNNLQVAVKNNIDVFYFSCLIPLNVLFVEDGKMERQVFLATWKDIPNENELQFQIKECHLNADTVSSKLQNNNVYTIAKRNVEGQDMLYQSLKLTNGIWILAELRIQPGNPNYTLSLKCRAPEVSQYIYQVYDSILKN
Sequence of UniProt Q9Y3B8 (Q9Y3B8 whole entry): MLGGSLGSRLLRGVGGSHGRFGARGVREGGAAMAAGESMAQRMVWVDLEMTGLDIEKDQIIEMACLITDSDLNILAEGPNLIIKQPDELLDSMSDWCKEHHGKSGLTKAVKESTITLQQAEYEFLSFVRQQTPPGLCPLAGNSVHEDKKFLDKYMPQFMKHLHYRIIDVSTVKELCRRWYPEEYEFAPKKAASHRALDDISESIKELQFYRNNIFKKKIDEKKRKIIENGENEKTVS
Sequence of UniProt Q9NS00 (Q9NS00 whole entry): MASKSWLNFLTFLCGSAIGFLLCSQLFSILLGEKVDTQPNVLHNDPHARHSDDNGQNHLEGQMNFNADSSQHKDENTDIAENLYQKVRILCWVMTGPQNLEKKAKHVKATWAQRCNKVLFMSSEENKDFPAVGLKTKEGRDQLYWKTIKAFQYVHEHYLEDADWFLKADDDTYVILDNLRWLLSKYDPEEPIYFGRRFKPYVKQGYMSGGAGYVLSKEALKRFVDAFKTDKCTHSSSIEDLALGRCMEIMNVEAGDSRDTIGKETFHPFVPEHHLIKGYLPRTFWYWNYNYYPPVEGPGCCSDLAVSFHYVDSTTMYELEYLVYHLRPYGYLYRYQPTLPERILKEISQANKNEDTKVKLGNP
Sequence of UniProt O95571 (O95571 whole entry): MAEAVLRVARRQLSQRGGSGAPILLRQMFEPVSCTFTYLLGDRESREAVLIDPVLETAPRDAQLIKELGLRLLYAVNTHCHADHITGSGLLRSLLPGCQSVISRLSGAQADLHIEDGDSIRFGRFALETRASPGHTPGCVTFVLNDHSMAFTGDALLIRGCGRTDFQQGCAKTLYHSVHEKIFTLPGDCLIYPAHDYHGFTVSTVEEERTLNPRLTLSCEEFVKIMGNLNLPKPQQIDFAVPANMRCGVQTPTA
Sequence of UniProt O43768 (O43768 whole entry): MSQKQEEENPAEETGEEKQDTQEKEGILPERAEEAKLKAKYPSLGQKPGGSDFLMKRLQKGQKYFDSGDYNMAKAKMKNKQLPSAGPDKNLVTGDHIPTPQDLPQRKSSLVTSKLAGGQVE
Sequence of UniProt Q9BZM1 (Q9BZM1 whole entry): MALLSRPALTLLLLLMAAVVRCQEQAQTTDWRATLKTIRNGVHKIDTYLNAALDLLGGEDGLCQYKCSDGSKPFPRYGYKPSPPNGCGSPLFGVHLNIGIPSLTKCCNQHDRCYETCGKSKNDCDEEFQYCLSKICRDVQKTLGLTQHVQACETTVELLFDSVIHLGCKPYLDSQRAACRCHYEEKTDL

Target	thermal stability z-score [1]	thermal stability z-score [2, 3]	thermal stability z-score ([2]; arsenate co-treatment: none)
ELMO2 (UniProt Q96JJ3)	0.457	-0.114	0.245
ABHD11 (UniProt Q8NFV4)	0.254	0.183	0.151
MME (UniProt P08473)	0.585	-0.46	-1.37
THOP1 (UniProt P52888)	-0.915	-0.0659	-0.212
IFRD2 (UniProt Q12894)	3.33	0.798	0.638
PSMB1 (UniProt P20618)	0.497	1	0.743
PPIL2 (UniProt Q13356)	-0.223	0.057	-0.0266
AP2B1 (UniProt P63010)	-0.216	-0.153	-0.596
ERCC3 (UniProt P19447)	0.156	0.0686	0.0573
ETHE1 (UniProt O95571)	0.0234	0.217	-0.107
COA5 (UniProt Q86WW8)	0.0388	-0.51	-0.761
VCP (UniProt P55072)	-0.172	0.257	0.118
B3GALNT2 (UniProt Q8NCR0)	-1.27	-0.788	-0.394
GSTT2|GSTT2B|EM	-0.23	0.517	0.277
AP4M1 (UniProt O00189)	-0.173	0.0799	-0.0232
RPUSD4 (UniProt Q96CM3)	-0.998	-0.196	-1.67
P3H4 (UniProt Q92791)	0.936	-4.72	-3.94
IPO8 (UniProt O15397)	0.756	-0.327	-0.557
TYW5 (UniProt A2RUC4)	0.66	0.502	0.336
REXO2 (UniProt Q9Y3B8)	0.192	0.295	0.536
ELMSAN1 (UniProt Q6PJG2)	-0.16	0.273	0.0593
GINS3 (UniProt Q9BRX5)	-0.288	0.275	-0.19
FAF1 (UniProt Q9UNN5)	0.738	0.777	0.869
DDX39B (UniProt Q13838)	0.941	0.451	0.103
LRCH3 (UniProt Q96II8)	-0.153	-0.0719	-0.00251
WDR73 (UniProt Q6P4I2)	-0.351	0.0525	-0.0893
SYNRG (UniProt Q9UMZ2)	0.478	-0.398	-0.18
ITGB5 (UniProt P18084)	0.289	-1.1	-0.661

Target	thermal stability z-score [1]	thermal stability z-score [2, 3]	thermal stability z-score ([2]; arsenate co-treatment: none)
ADAT3 (UniProt Q96EY9)	-0.301	-0.293	0.276
USP28 (UniProt Q96RU2)	-0.158	-0.088	-0.175
MED7 (UniProt O43513)	-0.328	-0.0337	-0.104
KIAA1522 (UniProt Q9P206)	0.286	-0.388	-0.0277
PLA2G12A (UniProt Q9BZM1)	-0.111	-0.0117	-0.134
HNRNPM (UniProt P52272)	-1.87	-0.523	-0.135
PIK3CB (UniProt P42338)	-0.371	-0.054	-0.193
POLDIP2 (UniProt Q9Y2S7)	0.18	-0.119	-0.241
GNL2 (UniProt Q13823)	-1.8	-0.195	-0.0312
CSF2RA (UniProt P15509)	0.19	0.513	0.365
STK3 (UniProt Q13188)	0.098	-0.139	-0.0255
SMAD4 (UniProt Q13485)	-0.746	-0.233	-0.519
RAN (UniProt P62826)	0.547	0.345	-0.105
IVD (UniProt P26440)	0.902	0.0798	-0.0801
SMARCD1 (UniProt Q96GM5)	-0.164	-0.0223	0.0841
C1GALT1 (UniProt Q9NS00)	-0.0716	-0.00802	-0.575
SURF6 (UniProt O75683)	-2.85	-0.283	-1.48
RXRA (UniProt P19793)	-0.255	0.08	0.208
SLC38A1 (UniProt Q9H2H9)	1.25	0.457	0.549
B4GALT4 (UniProt O60513)	0.252	-0.0137	-0.101
AGPAT3 (UniProt Q9NRZ7)	-0.114	-0.336	0.305
SHMT2 (UniProt P34897)	0.0996	-0.198	-0.436
RPL17 (UniProt P18621)	-0.755	0.743	0.704
RPA2 (UniProt P15927)	0.659	-0.131	-0.662
ENSA (UniProt O43768)	0.481	0.841	0.567
NEDD4 (UniProt P46934)	-0.128	0.296	0.196
NUMB (UniProt P49757)	-2.09	-0.402	0.201
